Target: LFA-1 binding to ICAM-1 (Homo sapiens, UniProt P05107+P20701)
Test: Inhibition of LFA-1 binding to ICAM-1 (LFA-1/Biotin-sICAM-1 AlphaScreen molecular assay)
Conditions: highest compound concentration 1 μM in 1% DMSO, 37° C., 90 minutes
Excerpt: Assay to Determine Inhibition of LFA-1 Binding to ICAM-1
This assay protocol is designed to study the direct antagonism, by a test compound, of the interaction of ICAM-1 with the Leukointegrin CD18/CD11a (LFA-1).
The LFA-1/Biotin-sICAM-1 molecular assay measures the ability of test compounds to inhibit binding of LFA-1 to Biotinylated-sICAM using AlphaScreen technology (Ref: Wilson, J, Rossi, C P, Carboni, S, Fremaux, C, Perrin, D, Soto, C, Kosco-Vilbois, M, and Scheer, A: A Homogeneous 384-Well High-Throughput Binding Assay for a TNF Receptor Using Alphascreen Technology. J Biomol Screen 2003; 8:522-532) that uses TS2/4(anti-LFA-1)-custom conjugated AlphaLisa acceptor beads and streptavidin-coated donor beads from PerkinElmer. The assay was performed in white OptiPlates-384 in a volume of 60 μL using assay buffer (Dulbecco's PBS containing calcium and magnesium, 2 mM MgCl2, 0.1 mM PMSF, 0.1% BSA, pH 7.1). To each well, Biotin-sICAM was added followed by purified LFA-1 (in buffer of 50 mM triethylamine, 150 mM NaCl, 1% beta octylglucoside, 2 mM MgCl2 neutralized to pH with 1M Tris-HCl, pH 7.5). For compound testing, compound was added in 5 uL to the above in 25 uL. LFA-1 and Biotin-sICAM-1 were used at concentrations that would yield a signal to background ratio of 8-10. The highest concentration of compound was 1 μM in 1% DMSO. Positive controls were wells without compound containing LFA-1, while blanks were wells without both compound and LFA-1. Plates were mixed and incubated at 37° C. for 90 minutes. This was followed by addition of 15 μL/well TS2/4-congugated acceptor beads diluted in PBS containing 0.1% BSA for a final concentration of 10 μg/mL. The plates were mixed and incubated in the dark for 30 minutes at room temperature followed by addition of 15 μL/well streptavidin-coated donor beads diluted in PBS containing 0.1% BSA at a final concentration of 15 μg/mL. The plates were mixed and incubated in the dark for 60 minutes at room temperature and then read on an EnVision Multilabel Reader using AlphaScreen 384-well OptiPlate protocol.

LFA-1 binding to ICAM-1, sequence (P20701 26-1170): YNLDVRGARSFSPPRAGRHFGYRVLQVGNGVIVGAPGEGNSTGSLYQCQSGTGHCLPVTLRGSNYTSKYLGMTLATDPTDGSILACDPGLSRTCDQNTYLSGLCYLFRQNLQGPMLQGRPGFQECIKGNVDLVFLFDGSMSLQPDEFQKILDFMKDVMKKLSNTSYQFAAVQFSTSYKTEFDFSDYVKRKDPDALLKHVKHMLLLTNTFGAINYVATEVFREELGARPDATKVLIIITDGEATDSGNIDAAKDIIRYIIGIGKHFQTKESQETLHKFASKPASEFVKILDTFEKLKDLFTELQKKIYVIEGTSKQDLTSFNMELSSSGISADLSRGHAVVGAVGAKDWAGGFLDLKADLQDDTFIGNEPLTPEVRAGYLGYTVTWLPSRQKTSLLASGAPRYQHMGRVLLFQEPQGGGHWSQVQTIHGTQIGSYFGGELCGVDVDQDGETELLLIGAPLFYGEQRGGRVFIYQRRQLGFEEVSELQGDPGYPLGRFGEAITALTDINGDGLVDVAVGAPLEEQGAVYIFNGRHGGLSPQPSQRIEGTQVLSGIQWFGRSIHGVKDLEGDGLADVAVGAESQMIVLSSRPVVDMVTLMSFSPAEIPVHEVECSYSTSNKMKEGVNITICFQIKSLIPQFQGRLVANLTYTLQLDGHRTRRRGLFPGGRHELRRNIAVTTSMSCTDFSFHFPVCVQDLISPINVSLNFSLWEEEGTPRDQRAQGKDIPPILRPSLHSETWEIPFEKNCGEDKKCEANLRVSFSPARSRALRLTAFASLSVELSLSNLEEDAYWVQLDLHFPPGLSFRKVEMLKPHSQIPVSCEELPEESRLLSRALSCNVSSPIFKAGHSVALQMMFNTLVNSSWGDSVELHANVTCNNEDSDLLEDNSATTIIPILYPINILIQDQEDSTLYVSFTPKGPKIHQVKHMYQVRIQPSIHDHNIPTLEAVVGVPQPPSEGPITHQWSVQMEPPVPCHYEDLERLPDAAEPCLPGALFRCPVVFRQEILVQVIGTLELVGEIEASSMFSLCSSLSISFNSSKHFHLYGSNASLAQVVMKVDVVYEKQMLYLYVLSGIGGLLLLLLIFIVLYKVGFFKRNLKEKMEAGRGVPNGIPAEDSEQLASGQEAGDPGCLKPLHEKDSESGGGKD
LFA-1 binding to ICAM-1, sequence (P05107 23-769): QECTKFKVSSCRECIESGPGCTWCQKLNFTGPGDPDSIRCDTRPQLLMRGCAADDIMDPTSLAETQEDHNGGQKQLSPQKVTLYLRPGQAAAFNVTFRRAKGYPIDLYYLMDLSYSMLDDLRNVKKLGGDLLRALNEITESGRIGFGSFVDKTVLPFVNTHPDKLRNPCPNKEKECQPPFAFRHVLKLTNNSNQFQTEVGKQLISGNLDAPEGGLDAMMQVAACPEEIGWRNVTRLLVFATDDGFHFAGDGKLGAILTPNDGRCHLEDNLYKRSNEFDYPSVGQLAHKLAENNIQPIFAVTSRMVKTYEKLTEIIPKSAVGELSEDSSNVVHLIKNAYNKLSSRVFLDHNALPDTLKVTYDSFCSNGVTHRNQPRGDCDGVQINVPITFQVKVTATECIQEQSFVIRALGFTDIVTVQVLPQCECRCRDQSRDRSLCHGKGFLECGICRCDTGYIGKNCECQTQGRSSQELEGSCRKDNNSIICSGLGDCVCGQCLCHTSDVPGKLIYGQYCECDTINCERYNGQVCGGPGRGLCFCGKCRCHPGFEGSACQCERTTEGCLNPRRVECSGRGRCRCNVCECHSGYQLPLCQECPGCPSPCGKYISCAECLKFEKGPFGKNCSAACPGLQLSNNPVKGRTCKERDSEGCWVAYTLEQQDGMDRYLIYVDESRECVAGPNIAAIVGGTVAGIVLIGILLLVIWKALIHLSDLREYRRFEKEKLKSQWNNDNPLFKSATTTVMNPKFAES

SMILES | IC50
C[C@@]1(Cc2ccc(C#N)cc2)C(=O)N(c2cc(Cl)cc(Cl)c2)c2ncc(C(=O)NC3(C(=O)NC4(c5cc(C(=O)N6CC(O)C6)ccn5)CC4)CC3)n21 [compound 87] | 0.98 nM
C[C@@]1(Cc2ccc(C#N)cc2)C(=O)N(c2cc(Cl)cc(Cl)c2)c2ncc(C(=O)NC3(C(=O)NC4(c5cc(C(=O)N6CCN(S(C)(=O)=O)CC6)ccn5)CC4)CC3)n21 [compound 89] | 1.4 nM
C[C@@]1(Cc2ccc(C#N)cc2)C(=O)N(c2cc(Cl)cc(Cl)c2)c2ncc(C(=O)NC3(C(=O)NC4(c5ccc(C(=O)N6CCC6)cn5)CC4)CC3)n21 [compound 90] | 0.29 nM
C[C@@H](CO)NC(=O)c1ccc(C2(NC(=O)C3(NC(=O)c4cnc5n4[C@](C)(Cc4ccc(C#N)cc4)C(=O)N5c4cc(Cl)cc(Cl)c4)CC3)CC2)nc1 [compound 91] | 0.81 nM
C[C@@]1(Cc2ccc(C#N)cc2)C(=O)N(c2cc(Cl)cc(Cl)c2)c2ncc(C(=O)NC3(C(=O)NC4(c5cccc(C(=O)NCc6ccccn6)n5)CC4)CC3)n21 [compound 92] | 1.3 nM
C[C@@]1(Cc2ccc(C#N)cc2)C(=O)N(c2cc(Cl)cc(Cl)c2)c2ncc(C(=O)NC3(C(=O)NC4(c5ccc(C(=O)NCCc6ccccn6)cn5)CC4)CC3)n21 [compound 93] | 0.62 nM
C[C@@]1(Cc2ccc(OC(F)(F)F)cc2)C(=O)N(c2cc(Cl)cc(Cl)c2)c2ncc(C(=O)NC3(C(=O)NC4(c5ccc(C(N)=O)cn5)CC4)CC3)n21 [compound 94] | 1.5 nM
C[C@@]1(Cc2ccc(C#N)cc2)C(=O)N(c2cc(Cl)cc(Cl)c2)c2ncc(C(=O)NC3(C(=O)NC4(c5cc(C(=O)NCCc6cccnc6)ccn5)CC4)CC3)n21 [compound 95] | 1 nM
C[C@@]1(Cc2ccc(C#N)cc2)C(=O)N(c2cc(Cl)cc(Cl)c2)c2ncc(C(=O)NC3(C(=O)NC4(c5cc(C(=O)NCC(O)CO)ccn5)CC4)CC3)n21 (some centres unmarked) [compound 96] | 0.74 nM
C[C@@]1(Cc2ccc(C#N)cc2)C(=O)N(c2cc(Cl)cc(Cl)c2)c2ncc(C(=O)NC3(C(=O)NC4(c5cc(C(=O)N6CCNCC6)ccn5)CC4)CC3)n21 [compound 97] | 1 nM
C[C@@]1(Cc2ccc(C#N)cc2)C(=O)N(c2cc(Cl)cc(Cl)c2)c2ncc(C(=O)NC3(C(=O)NC4(c5cccc(C(N)=O)n5)CC4)CC3)n21 [compound 98] | 1.1 nM
C[C@H](O)CNC(=O)c1ccc(C2(NC(=O)C3(NC(=O)c4cnc5n4[C@](C)(Cc4ccc(C#N)cc4)C(=O)N5c4cc(Cl)cc(Cl)c4)CC3)CC2)nc1 [compound 99] | 0.52 nM
COCCNC(=O)c1ccnc(C2(NC(=O)C3(NC(=O)c4cnc5n4[C@](C)(Cc4ccc(C#N)cc4)C(=O)N5c4cc(Cl)cc(Cl)c4)CC3)CC2)c1 [compound 100] | 0.9 nM
C[C@@]1(Cc2ccc(C#N)cc2)C(=O)N(c2cc(Cl)cc(Cl)c2)c2ncc(C(=O)NC3(C(=O)NC4(c5ccc(C(=O)N6CCCC(C(N)=O)C6)cn5)CC4)CC3)n21 (some centres unmarked) [compound 101] | 0.42 nM
C[C@@H](NC(=O)c1ccc(C2(NC(=O)C3(NC(=O)c4cnc5n4[C@](C)(Cc4ccc(C#N)cc4)C(=O)N5c4cc(Cl)cc(Cl)c4)CC3)CC2)nc1)C(N)=O [compound 102] | 0.37 nM
C[C@@]1(Cc2ccc(C#N)cc2)C(=O)N(c2cc(Cl)cc(Cl)c2)c2ncc(C(=O)NC3(C(=O)NC4(c5cc(C(=O)N6CC[C@H](O)C6)ccn5)CC4)CC3)n21 [compound 103] | 0.75 nM
C[C@@]1(Cc2ccc(C#N)cc2)C(=O)N(c2cc(Cl)cc(Cl)c2)c2ncc(C(=O)NC3(C(=O)NC4(c5cccc(C(=O)N6CCC6)n5)CC4)CC3)n21 [compound 104] | 2.3 nM
CC(C)(CO)NC(=O)c1ccnc(C2(NC(=O)C3(NC(=O)c4cnc5n4[C@](C)(Cc4ccc(C#N)cc4)C(=O)N5c4cc(Cl)cc(Cl)c4)CC3)CC2)c1 [compound 105] | 0.65 nM
CN(C)CCNC(=O)c1ccc(C2(NC(=O)C3(NC(=O)c4cnc5n4[C@](C)(Cc4ccc(C#N)cc4)C(=O)N5c4cc(Cl)cc(Cl)c4)CC3)CC2)nc1 [compound 106] | 0.82 nM
C[C@@]1(Cc2ccc(C#N)cc2)C(=O)N(c2cc(Cl)cc(Cl)c2)c2ncc(C(=O)NC3(C(=O)NC4(c5cc(C(=O)NCCC(N)=O)ccn5)CC4)CC3)n21 [compound 107] | 0.3 nM
CC(C)(NC(=O)c1ccnc(C2(NC(=O)C3(NC(=O)c4cnc5n4[C@](C)(Cc4ccc(C#N)cc4)C(=O)N5c4cc(Cl)cc(Cl)c4)CC3)CC2)c1)c1ccccc1 [compound 108] | 3 nM

SMILES | IC50
C[C@@]1(Cc2ccc(C#N)cc2)C(=O)N(c2cc(Cl)cc(Cl)c2)c2ncc(C(=O)NC3(C(=O)NC4(c5ccc(C(=O)NCCn6ccnc6)cn5)CC4)CC3)n21 [compound 109] | 0.41 nM
C[C@@]1(Cc2ccc(C#N)cc2)C(=O)N(c2cc(Cl)cc(Cl)c2)c2ncc(C(=O)NC3(C(=O)NC4(c5cc(C(=O)N6CCCCC6)ccn5)CC4)CC3)n21 [compound 110] | 3.4 nM
CN(C)C1CCN(C(=O)c2cccc(C3(NC(=O)C4(NC(=O)c5cnc6n5[C@](C)(Cc5ccc(C#N)cc5)C(=O)N6c5cc(Cl)cc(Cl)c5)CC4)CC3)n2)C1 (some centres unmarked) [compound 111] | 2.5 nM
C[C@@]1(Cc2ccc(C#N)cc2)C(=O)N(c2cc(Cl)cc(Cl)c2)c2ncc(C(=O)NC3(C(=O)NC4(c5ccc(C(=O)NCCC(N)=O)cn5)CC4)CC3)n21 [compound 112] | 0.28 nM
CC(=O)N1CCN(C(=O)c2ccnc(C3(NC(=O)C4(NC(=O)c5cnc6n5[C@](C)(Cc5ccc(C#N)cc5)C(=O)N6c5cc(Cl)cc(Cl)c5)CC4)CC3)c2)CC1 [compound 113] | 1.3 nM
C[C@@]1(Cc2ccc(C#N)cc2)C(=O)N(c2cc(Cl)cc(Cl)c2)c2ncc(C(=O)NC3(C(=O)NC4(c5cc(C(=O)NC6CCC6)ccn5)CC4)CC3)n21 [compound 114] | 0.84 nM
C[C@@]1(Cc2ccc(C#N)cc2)C(=O)N(c2cc(Cl)cc(Cl)c2)c2ncc(C(=O)NC3(C(=O)NC4(c5cc(C(=O)N6CCC[C@@H]6C(N)=O)ccn5)CC4)CC3)n21 [compound 115] | 0.33 nM
CC(=O)N(C)C1CCN(C(=O)c2ccc(C3(NC(=O)C4(NC(=O)c5cnc6n5[C@](C)(Cc5ccc(C#N)cc5)C(=O)N6c5cc(Cl)cc(Cl)c5)CC4)CC3)nc2)C1 (some centres unmarked) [compound 116] | 0.75 nM
CC(C)(O)CNC(=O)c1ccc(C2(NC(=O)C3(NC(=O)c4cnc5n4[C@](C)(Cc4ccc(C#N)cc4)C(=O)N5c4cc(Cl)cc(Cl)c4)CC3)CC2)nc1 [compound 117] | 0.37 nM
C[C@@H](NC(=O)c1cccc(C2(NC(=O)C3(NC(=O)c4cnc5n4[C@](C)(Cc4ccc(C#N)cc4)C(=O)N5c4cc(Cl)cc(Cl)c4)CC3)CC2)n1)c1ccccc1 [compound 118] | 33 nM
C[C@@]1(Cc2ccc(C#N)cc2)C(=O)N(c2cc(Cl)cc(Cl)c2)c2ncc(C(=O)NC3(C(=O)NC4(c5ccc(C(=O)N6CCCC6)cn5)CC4)CC3)n21 [compound 119] | 0.72 nM
CC(CO)NC(=O)c1ccnc(C2(NC(=O)C3(NC(=O)c4cnc5n4[C@](C)(Cc4ccc(C#N)cc4)C(=O)N5c4cc(Cl)cc(Cl)c4)CC3)CC2)c1 (some centres unmarked) [compound 120] | 0.75 nM
CC(=O)NCCNC(=O)c1ccc(C2(NC(=O)C3(NC(=O)c4cnc5n4[C@](C)(Cc4ccc(C#N)cc4)C(=O)N5c4cc(Cl)cc(Cl)c4)CC3)CC2)nc1 [compound 121] | 0.37 nM
C[C@@]1(Cc2ccc(C#N)cc2)C(=O)N(c2cc(Cl)cc(Cl)c2)c2ncc(C(=O)NC3(C(=O)NC4(c5cc(C(=O)N6CCC[C@H]6C(N)=O)ccn5)CC4)CC3)n21 [compound 122] | 1.7 nM
C[C@@]1(Cc2ccc(C#N)cc2)C(=O)N(c2cc(Cl)cc(Cl)c2)c2ncc(C(=O)NC3(C(=O)NC4(c5cccc(C(=O)NC6CC6)n5)CC4)CC3)n21 [compound 123] | 0.34 nM
CN(C)C(=O)c1ccc(C2(NC(=O)C3(NC(=O)c4cnc5n4[C@](C)(Cc4ccc(C#N)cc4)C(=O)N5c4cc(Cl)cc(Cl)c4)CC3)CC2)nc1 [compound 124] | 2.1 nM
C[C@@]1(Cc2ccc(C#N)cc2)C(=O)N(c2cc(Cl)cc(Cl)c2)c2ncc(C(=O)NC3(C(=O)NC4(c5cccc(C(=O)N6CCCCC6CO)n5)CC4)CC3)n21 (some centres unmarked) [compound 125] | 0.28 nM
C[C@@]1(Cc2ccc(C#N)cc2)C(=O)N(c2cc(Cl)cc(Cl)c2)c2ncc(C(=O)NC3(C(=O)NC4(c5ccc(C(=O)NC6CC6)cn5)CC4)CC3)n21 [compound 126] | 2.6 nM
C[C@@]1(Cc2ccc(C#N)cc2)C(=O)N(c2cc(Cl)cc(Cl)c2)c2ncc(C(=O)NC3(C(=O)NC4(c5cccc(C(=O)NCC(N)=O)n5)CC4)CC3)n21 [compound 127] | 0.5 nM
C[C@@H](O)CNC(=O)c1ccc(C2(NC(=O)C3(NC(=O)c4cnc5n4[C@](C)(Cc4ccc(C#N)cc4)C(=O)N5c4cc(Cl)cc(Cl)c4)CC3)CC2)nc1 [compound 128] | 0.47 nM

— patent US8481750B2 (Boehringer Ingelheim International GmbH, priority 2009, dated 2013)
